Among the test systems are DU-145 prostate; HCC-2998 colon; HCT-116 colon; MALME-3M melanoma; NCI-H23 lung; NCI-H460 lung; OVCAR-8 ovarian; SK-MEL-28 melanoma; SR leukemia; UO-31 renal.
What all share (test): NCI tumour cell line growth inhibition, 48 h

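Step 1: Grow cells in 96-well plates. Step 2: Expose to compound for 48 hours at 5 concentrations. Step 3: Interpolate endpoints linearly; if unreached, use highest concentration. GI50 is the concentration that inhibits growth by half. Definition used: TGI = concentration required for complete inhibition of growth.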 Where a SMILES comes first, the peptide text is derived from it. The star is where a group is joined. Boc = CC(C)(C)OC(=O)*; OBn = c1ccc(CO*)cc1

As to `O=C(N[C@H]1c2ccsc2/C(=N/O)[C@H]1O)C(F)(F)F`, the TGI in the assay with DU-145 prostate, in the assay on HCC-2998 colon, in the assay with HCT-116 colon, with MALME-3M melanoma, with NCI-H23 lung and in the assay with NCI-H460 lung was over 100 µM each time. Further, the TGI with OVCAR-8 ovarian, in the assay with SK-MEL-28 melanoma, with SR leukemia and in the assay on UO-31 renal was over 100 µM in each case.
On to `CSc1cc(N)ccc1N=Nc1ccc(S(N)(=O)=O)cc1`, for which the TGI is over 100 µM in the assay with DU-145 prostate; over 100 µM in the assay with HCC-2998 colon; over 100 µM in the assay on HCT-116 colon; 84.4 µM with MALME-3M melanoma; over 100 µM with NCI-H23 lung; 71.6 µM with NCI-H460 lung. The TGI was 53.6 µM with OVCAR-8 ovarian, over 100 µM in the assay on SK-MEL-28 melanoma, over 100 µM in the assay with SR leukemia and 56.1 µM with UO-31 renal.
Regarding `CC(C)(C)OC(=O)NC(Cc1ccccc1)C(=O)NC(Cc1ccccc1)C(=O)NCC(=O)OCc1ccccc1` (stereo not drawn) (Boc-Phe-Phe-Gly-OBn; configuration not given here), the TGI in the assay with DU-145 prostate is 33.2 µM; with HCC-2998 colon, 29.8 µM; in the assay with HCT-116 colon, 40.2 µM; in the assay on MALME-3M melanoma, over 100 µM; in the assay with NCI-H23 lung it was 80.7 µM; in the assay with NCI-H460 lung it was 49.9 µM. The TGI with OVCAR-8 ovarian is over 100 µM; in the assay with SK-MEL-28 melanoma it was 42.7 µM; with SR leukemia, 44.6 µM; in the assay with UO-31 renal it was over 100 µM.
With `COc1ccc(C2C(C#N)=C(S)N(C3OC(CO)C(O)C(O)C3O)C(c3ccccc3)=C2C(C)=O)cc1` (stereo not given), the TGI in the assay with DU-145 prostate, with HCC-2998 colon, with HCT-116 colon, with MALME-3M melanoma, in the assay with NCI-H23 lung and in the assay on NCI-H460 lung was over 100 µM throughout. For the same compound, the TGI in the assay with OVCAR-8 ovarian, with SK-MEL-28 melanoma, in the assay on SR leukemia and with UO-31 renal was over 100 µM throughout.
On to `C[C@]12CC[C@@H]3c4ccc(OC(=O)c5ccccc5)cc4CC[C@H]3[C@@H]1CC[C@@H]2Oc1c2ccccc2nc2ccccc12`, for which the TGI in the assay on DU-145 prostate was 20.3 µM; in the assay on HCC-2998 colon, 16.9 µM; in the assay on HCT-116 colon, 18 µM; in the assay on MALME-3M melanoma, 21.6 µM; in the assay with NCI-H23 lung, over 50 µM; in the assay on NCI-H460 lung it was 17.1 µM. For the same compound, the TGI in the assay with OVCAR-8 ovarian was 45 µM; with SK-MEL-28 melanoma, 22.3 µM; in the assay on SR leukemia it was over 50 µM; in the assay with UO-31 renal it was over 50 µM.
Turning to `Cc1ccc(-c2n[nH]c(=O)[nH]2)cc1[N+](=O)[O-]`, the TGI in the assay on DU-145 prostate, with HCC-2998 colon, with HCT-116 colon, in the assay with MALME-3M melanoma, in the assay on NCI-H23 lung and in the assay on NCI-H460 lung was over 100 µM throughout. For the same compound, the TGI in the assay with OVCAR-8 ovarian, in the assay with SK-MEL-28 melanoma, with SR leukemia and in the assay with UO-31 renal was over 100 µM each time.
For `COC(=O)[C@@H]1C[C@@]2(C3C=CN(C(=O)C(F)(F)F)C=C3)c3ccccc3N(C(=O)C(F)(F)F)[C@H]2N1C(=O)OC`, the TGI in the assay on DU-145 prostate, in the assay with HCC-2998 colon, in the assay with HCT-116 colon, in the assay on MALME-3M melanoma, with NCI-H23 lung and in the assay with NCI-H460 lung was over 100 µM each time. For the same compound, the TGI with OVCAR-8 ovarian, in the assay with SK-MEL-28 melanoma, in the assay on SR leukemia and with UO-31 renal was over 100 µM in each case.
For the compound `COc1ccc2nc3cc(Cl)ccc3c(NCCNCCCNC(=O)c3cc(-c4ccccc4)nc4ccccc34)c2c1`, the TGI in the assay with DU-145 prostate, in the assay with HCC-2998 colon, in the assay on HCT-116 colon, in the assay on MALME-3M melanoma, in the assay with NCI-H23 lung and in the assay with NCI-H460 lung was over 100 µM each time. The TGI in the assay on OVCAR-8 ovarian, in the assay with SK-MEL-28 melanoma, with SR leukemia and with UO-31 renal was over 100 µM each time.
As for `COc1cc(C2S/C(=C/c3ccccc3)C(=O)N2c2ccc(Cl)c(Cl)c2)cc(OC)c1OC` (stereo not given), the TGI is over 100 µM in the assay on DU-145 prostate; over 100 µM with HCC-2998 colon; over 78.9 µM with HCT-116 colon; over 100 µM in the assay on MALME-3M melanoma; over 100 µM with NCI-H23 lung; over 100 µM with NCI-H460 lung. The TGI with OVCAR-8 ovarian, in the assay with SK-MEL-28 melanoma, with SR leukemia and in the assay on UO-31 renal was over 100 µM throughout.
Regarding `O=C1c2cccc3cccc(c23)C(=O)N1CCCNOCCONCCCN1C(=O)c2cccc3cccc(c23)C1=O`, the TGI in the assay with DU-145 prostate, in the assay with HCC-2998 colon, with HCT-116 colon, with MALME-3M melanoma, with NCI-H23 lung and with NCI-H460 lung was over 100 µM in each case. Besides, the TGI with OVCAR-8 ovarian, with SK-MEL-28 melanoma, in the assay with SR leukemia and with UO-31 renal was over 100 µM each time.
For the compound `CN(C)CCCOCCn1c2c(c3ccccc31)CCCC2`, the TGI with DU-145 prostate worked out at 67.7 µM; with HCC-2998 colon it was 28.4 µM; in the assay on HCT-116 colon it was 28.8 µM; in the assay on MALME-3M melanoma, 32.5 µM; in the assay on NCI-H23 lung it was 94.6 µM; in the assay on NCI-H460 lung it was 28.9 µM. Moreover, the TGI in the assay on OVCAR-8 ovarian stood at 35.9 µM; with SK-MEL-28 melanoma, 30.2 µM; in the assay with SR leukemia, 41 µM; in the assay on UO-31 renal it was 36.9 µM.
Take `Cn1c2ccccc2c2c3c(c4c5ccccc5n(C)c4c21)C(=O)c1ccccc1C3=O`: the TGI with DU-145 prostate is over 100 µM; in the assay with HCC-2998 colon, over 100 µM; with HCT-116 colon, over 100 µM; in the assay with MALME-3M melanoma, 60 µM; with NCI-H23 lung it was 63.5 µM; with NCI-H460 lung, over 100 µM. In addition, the TGI was over 100 µM in the assay on OVCAR-8 ovarian, over 100 µM in the assay on SK-MEL-28 melanoma, 40.2 µM in the assay on SR leukemia and over 100 µM with UO-31 renal.
For the compound `COC(=O)[C@@]12CCCC(=O)[C@@H]1[C@H]1CCCC[C@H]12`, the TGI in the assay with DU-145 prostate, in the assay with HCC-2998 colon, in the assay with HCT-116 colon, in the assay with MALME-3M melanoma, in the assay on NCI-H23 lung and with NCI-H460 lung was over 100 µM in each case. For the same compound, the TGI in the assay on OVCAR-8 ovarian, with SK-MEL-28 melanoma, with SR leukemia and in the assay with UO-31 renal was over 100 µM throughout.
For the compound `CSc1c(C#N)c2n(c3ccccc13)c1ccccc1[n+]2C`, the TGI was 92.6 µM in the assay on DU-145 prostate; 64.8 µM with HCC-2998 colon; 40.8 µM in the assay with HCT-116 colon; 34.6 µM in the assay with MALME-3M melanoma; 70.7 µM in the assay with NCI-H23 lung; over 100 µM with NCI-H460 lung. The TGI with OVCAR-8 ovarian is 59.3 µM; in the assay on SK-MEL-28 melanoma, over 100 µM; in the assay on SR leukemia it was over 100 µM; in the assay with UO-31 renal it was 64.9 µM.
For the compound `COc1ccc(C(=O)N2c3ccccc3Sc3ccccc32)c(C(F)(F)F)c1`, the GI50 with DU-145 prostate was 433 nM; with HCC-2998 colon, 467 nM; in the assay on HCT-116 colon, 505 nM; in the assay on MALME-3M melanoma it was 25.8 µM; in the assay on NCI-H23 lung it was 578 nM; with NCI-H460 lung, 383 nM. The GI50 with OVCAR-8 ovarian is 593 nM; in the assay with SK-MEL-28 melanoma it was 9.17 µM; in the assay with SR leukemia, 312 nM; in the assay with UO-31 renal, 2620 nM. The TGI in the assay with DU-145 prostate is over 100 µM; in the assay with HCC-2998 colon, 32 µM; in the assay on HCT-116 colon it was over 100 µM; in the assay with MALME-3M melanoma, over 100 µM; in the assay on NCI-H23 lung it was over 100 µM; with NCI-H460 lung it was over 100 µM. For the same compound, the TGI was over 100 µM with OVCAR-8 ovarian, over 100 µM in the assay on SK-MEL-28 melanoma, 76.9 µM with SR leukemia and over 100 µM in the assay on UO-31 renal.
Take `[N-]=[N+]=Nc1ccc(CNc2cc(=O)[nH]c(=O)[nH]2)cc1`: the TGI with DU-145 prostate, in the assay on HCC-2998 colon, with HCT-116 colon, in the assay on MALME-3M melanoma, in the assay on NCI-H23 lung and in the assay with NCI-H460 lung was over 100 µM throughout. Moreover, the TGI in the assay with OVCAR-8 ovarian was over 100 µM; with SK-MEL-28 melanoma, 99.6 µM; in the assay with SR leukemia, over 100 µM; with UO-31 renal it was over 100 µM.
Consider `CN(C)CCNc1ncnc2nc(-c3ccc4ccccc4c3)[nH]c12`, for which the TGI in the assay with DU-145 prostate, in the assay with HCC-2998 colon, in the assay on HCT-116 colon, in the assay on MALME-3M melanoma, in the assay with NCI-H23 lung and with NCI-H460 lung was over 100 µM each time. The TGI in the assay on OVCAR-8 ovarian, in the assay with SK-MEL-28 melanoma, with SR leukemia and in the assay with UO-31 renal was over 100 µM each time.
Regarding `COc1cc(S(=O)(=O)Nc2ccc(-c3csc(N4C(=O)CSC4c4ccccc4)n3)cc2)ccc1Cl` (stereo not given), the TGI was over 100 µM in the assay on DU-145 prostate; 42.4 µM in the assay with HCC-2998 colon; over 100 µM in the assay on HCT-116 colon; over 100 µM in the assay on MALME-3M melanoma; over 100 µM in the assay with NCI-H23 lung; over 100 µM in the assay with NCI-H460 lung. For the same compound, the TGI with OVCAR-8 ovarian is over 100 µM; with SK-MEL-28 melanoma, 65.1 µM; with SR leukemia, over 100 µM; with UO-31 renal, over 100 µM.

(Values after PubChem BioAssay (NCI).)
